Source: patent US7060292B2, “Lipid structures and uses thereof” (GESynthesis, Inc., priority 2001, dated 2006)
One block for each compound: values may come before it.

Tests used:
[1] = pKa and ionization of test compounds; type: physicochemical
[2] = Movement across bilayer into vesicle interior containing cyclodextrin-esterified DPH (permeability coefficient); type: physicochemical
Method: Calculation of permeability coefficient (P). The rate constant (kn) for and maximum extent of (Δm) fluorescence change are determined using direct curve fitting procedures (nonlinear regression) assuming that test substance movement is a simple first order process. Deviation from first-order kinetics may be encountered when test compound movement into, out of, or across the membrane is carrier- or channel-mediated or the drug concentration approaches saturation. […] In general an increasing signal takes the form: Et=Eb+En(1−e^−k^n^t)+En+1(1−e^−k^n+1^t)+. . . and a decreasing signal takes the form: Et=Eb+Ene^−k^n^t+En+1e^−k^n+1^t+. . . , where Et is the fluorescence of the system at time t, En is the fluorescence of the system either at time zero (for a decreasing signal) or infinity (for an increasing signal), Eb is the system fluorescence insensitive to addition or removal of test compound, t is time, and kn is the rate constant describing the rate of fluorescence decrease or increase. If more than one first order process is detected, the second or third processes are characterized by En+1, and kn+1 and by En+2 and kn+2, respectively.
The half-life for test compound movement across the bilayer is computed from the rate constant as t1/2=0.693/kn.
The molar flux (v) of a test compound across the membrane is computed as […]

[3] = Stein 1985; cited from earlier work

SMILES: CCCCCC(=O)O [hexanoic acid]
percentage ionized ([1]; pH 4.0): ~13%
percentage ionized ([1]; pH 7.0): > 99%

diffusion coefficient Dm ([2]; computed from P and K assuming λ=40×10^−8 cm): 3.9×10^−7 cm^−2·s^−1
SMILES: CCO [ethanol]
rate constant kn for uptake into vesicle interior ([2]; 10 μg lipid vesicles in 2 ml buffer, 10 μl ethanol): 62.9 per second
diffusion coefficient Dm, reported value [3]: 1.5×10^−7 cm^−2s^−1

ionization ([1]; pH 4.0 and pH 7.0): not substantially ionized at either pH
SMILES: CCCCCCO [hexanol]
